Assay results published in patent US20220009894A1, “1,2,3,4-TETRAHYDROQUINOXALINE DERIVATIVE, PREPARATION METHOD THEREFOR AND APPLICATION THEREOF” (Abbisko Therapeutics Co., Ltd., priority 2019, published 2022).

What was measured:
RORγt-LBD = biological target: T1, RORγt-LBD (Homo sapiens, UniProt P51449); assay: Time-resolved fluorescence resonance energy-transfer assay (TR-FRET), co-activator peptide recruitment; assay type: biochemical; parameters: TR-FRET Biochemical Amax: unit not given here; details: for EC50: His-RORγt-LBD 30 nM, SRC peptide 500 nM, agonistic activity, averages of one or more measurements, read-out: TR-FRET Biochemical EC50/; for TR-FRET Biochemical Amax: upper activation limit, His-RORγt-LBD, SRC peptide
T1 sequence (P51449 269-508 limits assumed): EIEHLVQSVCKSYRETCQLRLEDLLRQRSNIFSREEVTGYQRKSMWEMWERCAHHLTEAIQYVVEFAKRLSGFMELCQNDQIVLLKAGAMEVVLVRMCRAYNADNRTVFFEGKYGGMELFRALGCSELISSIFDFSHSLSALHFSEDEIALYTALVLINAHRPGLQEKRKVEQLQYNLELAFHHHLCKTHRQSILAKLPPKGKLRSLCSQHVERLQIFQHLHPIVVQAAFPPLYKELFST
Text: I. Time-Resolved Fluorescence Resonance Energy-Transfer Assay (TR-FRET)
This experiment was a screening experiment for RORγt nuclear receptor agonists based on TR-FRET technology. When His-labeled RORγt-LBD receptor binds to receptor agonists, it may increase the recruitment of biotin-labeled co-activator peptides. Europium-His-RORγt-LBD is indirectly labeled by donor (Eu) by binding to Eu-anti-His antibody. Once Eu is activated by an energy source (such as flashlight or laser), the energy will be transferred to the co-activator indirectly labeled by allophycocyanin by binding of allophycocyanin-streptavidin and biotin-labeled co-activator. • 1. 10× buffer (500 mM Tris-HCl, 500 mM KCl, and 10 mM Na-EDTA) was prepared, pH value was adjusted to 7.0. The buffer was stored at 4° C. for later use and was restored to normal temperature before experiment; • 2. The 10× buffer was diluted to 1× with pure water. Final concentration of 0.01% Triton X-100 and 1 mM DTT (dithiothreitol) were added to prepare the assay buffer; • 3. DMSO was used to prepare 1000× compound stock solution. The compound solution was serial-diluted in 5-fold for 7 concentrations from the top concentration of 1000 nM/10000 nM. Then the 10× compound solution was prepared with assay buffer. An amount of 2 μL was aliquoted into the 20 μL system; • 4. 5×RORγt-LBD protein solution was unfreezed, and a solution of 5× concentration was prepared with assay buffer to obtain a final concentration of 30 nM. The whole operation was carried out on ice; • 5. 5×SRC peptide was unfreezed, and a solution of 5× concentration was prepared with assay buffer to obtain a final concentration of 500 nM. The whole operation was carried out on ice; • 6. 4 μL/well of RORγt-LBD receptor was added into the testing wells of 384-well plate, and the same amount of assay buffer was added to the control wells of non-RORγt-LBD group; • 7. 2 μL of compound was added into each well of 384-well plate; • 8. 4 μL of SRC peptide was added into each well of 384-well plate; • 9. 2× Eu-anti-6× His/APC-Streptavidin was diluted with Lance detection buffer to a final concentration of 0.25 nM and 5 nM, respectively, and then 10 μL of 2× Eu-anti-6× His/APC-Streptavidin was added into each well of 384-well plate; • 10. The mixed solution was incubated at 4° C. overnight; • 11. On the morning of the next day, the 384-well plate was incubated at room temperature for 1 hr. Then the corresponding signal values were read with PerkinElmer EnVision at a wavelength of 665/615 […]. The agonistic activity of the corresponding compound was calculated with Graphpad Prism 7.0 software.

RORγt = biological target: T2, RORγt (Homo sapiens, UniProt P51449); assay: RORγt cellular reporter gene detection assay; assay type: cell-based; details: 24 hrs; for EC50: HEK 293 cells co-transfected with pFN26A-RORγt-LBD and pG14.35, in presence of antagonist Ursolic acid, top concentration 50 μM; for Cellular Reporter Assay Amax: upper activation limit, HEK 293 cells, in presence of antagonist Ursolic acid;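 for Cellular Reporter Assay Amax: Ursolic Acid added as 5 µL of 20 µM medium per well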
T2 construct: The plasmid of pFN26A-RORγt-LBD and pG14.35 (Promega, Cat. No. E1370) were co-transfected into HEK 293 cells; expressed in transfected cells; host or cells: HEK 293 cells (Cat. No. GNHu18)
T2 sequence (P51449 269-508 limits assumed): T1 sequence (P51449 269-508 limits assumed)
Method: II. RORγt Cellular Reporter Gene Detection Assay
In this experiment, RORγt Reporter Gene Detection method was used to evaluate the activation and specificity of compounds to RORγt in cells. The plasmid of pFN26A-RORγt-LBD and pG14.35 (Promega, Cat. No. E1370) were co-transfected into HEK 293 cells (Cat. No. GNHu18). The efficacy of compounds was evaluated with the presence of an antagonist Ursolic acid (Selleck, Cat. No. S2370-100 mg). The specific experimental process was as follow: • 1. The plasmids-co-transfected cells were inoculated into a 96-well plate (Corning, Cat. No 3610) in a fresh DMEM medium (Gibco, cat. No. 1773536) containing 10% fetal bovine serum (Gibco, Cat. No. 10099-141) at 30000 cells/40 μL/well; • 2. 5 μL of medium containing 20 μM Ursolic acid was added thereto; • 3. The dose effect was evaluated by a 4-fold dilution of the test compound starting from 50 μM; • 4. 5 μL of medium containing a compound concentration of 10-fold of its final test concentration was added; • 5. After the cells were incubated at 37° C. and 5% CO2 for 24 hrs, 50 μL of detection reagent was added to detect firefly fluorescence using PerkinElmerEnVision, and 50 μL of the second detection reagent was added to detect sea kidney fluorescence; • 6. A four-parameter curve simulated in GraphPad Prism was used to determine the concentration for 50% activation (EC50) and the upper activation limit (Amax) for each compound.

EC50 (RORγt-LBD) | TR-FRET Biochemical Amax (RORγt-LBD) | EC50 (RORγt) | Cellular Reporter Assay Amax (RORγt) | Compound
1.51 nM | 0.62 | 245 nM | 3.3 | CC1(C)C=C(c2ccc3c(c2)N(S(=O)(=O)c2cccc(C(F)(F)F)c2)C[C@@H]2CN(CC(=O)O)CCN32)CC(C)(C)O1 [Example 22, (S)-2-(8-(2,2,6,6-tetramethyl-3,6-dihydro-2H-pyran-4-yl)-6-((3-(trifluoromethyl)phenyl)sulfonyl)-1,2,4,4a,5,6-hexa-hydro-3H-pyrazino[1,2-a]quinoxalin-3-yl)acetic acid]
3.51 nM | 0.77 | 750 nM | 2.1 | CC(C)OC(=O)CN1CCN2c3ccc(/C=C/c4c(Cl)cccc4C(F)(F)F)cc3N(S(=O)(=O)c3cccc(C(F)(F)F)c3)C[C@@H]2C1 [Example 47, isopropyl (S,E)-2-(8-(2-chloro-6-(trifluoromethyl)styryl)-6-((3-(trifluoromethyl)phenyl)sulfonyl)-1,2,4,4a,5,6-hexahydro-3H-pyrazino[1,2-a]quinoxalin-3-yl) acetate]
98.4 nM | 0.68 | 447 nM | 1.1 | C[C@@]1(OCCC(N)=O)CCN2c3ccc(-c4cc(F)cc(OC(F)F)c4)cc3N(S(=O)(=O)c3cccc(C(F)(F)F)c3)C[C@@H]2C1 [Example 122, 3-(((6aS,8R)-3-(3-(difluoromethoxy)-5-fluorophenyl)-8-methyl-5-((3-(trifluoromethyl)phenyl)sulfo-nyl)-6,6a,7,8,9,10-hexahydro-5H-pyrido[1,2-a]quinoxalin-8-yl)oxy) propanamide]
29.6 nM | 0.82 | 603 nM | 4.2 | CS(=O)(=O)N1CCN2c3ccc(/C=C/c4c(Cl)cccc4C(F)(F)F)cc3N(S(=O)(=O)c3cccc(C(F)(F)F)c3)C[C@@H]2C1 [Example 17, (S,E)-8-(2-chloro-6-(tri-fluoromethyl)styryl)-3-(methylsulfonyl)-6-((3-(trifluoromethyl)phenyl)sulfonyl)-2,3,4,4a,5,6-hexahydro-1H-pyrazino [1,2-a]quinoxaline]
25.2 nM | 0.69 | 297 nM | 3.8 | C/C(=C\c1ccc2c(c1)N(S(=O)(=O)c1cccc(C(F)(F)F)c1)C[C@@H]1CN(C(N)=O)CCN21)c1c(F)cccc1Cl [Example 62, (S,E)-8-(2-(2-chloro-6-fluoro-phenyl)prop-1-en-1-yl)-6-((3-(trifluoromethyl)phenyl)sulfo-nyl)-1,2,4,4a,5,6-hexahydro-3H-pyrazino[1,2-a]quinoxa-line-3-carboxamide]
18.1 nM | 1.85 | 163 nM | 3.1 | O=S(=O)(c1cccc(C(F)(F)F)c1)N1CCNc2ccc(-c3cc(F)cc(OC(F)F)c3)cc21 [Example 2, 7-(3-(difluoromethoxy)-5-fluorophenyl)-1-((3-(trifluoromethyl)phenyl)sulfonyl)-1,2,3,4-tetrahydroquinoxaline]
23.5 nM | 1.04 | 256 nM | 4.2 | COC(=O)CN1CCN2c3ccc(/C=C(\C)c4c(F)cccc4Cl)cc3N(S(=O)(=O)c3cccc(C(F)(F)F)c3)C[C@@H]2C1 [Example 44, methyl (S,E)-2-(8-(2-(2-chloro-6-fluorophenyl)prop-1-en-1-yl)-6-((3-(trifluoromethyl)phenyl)sulfonyl)-1,2,4,4a,5,6-hexahydro-3H-pyrazino[1,2-a]quinoxalin-3-yl)acetate]
40 nM | 0.96 | 725 nM | 4.6 | C/C(=C\c1ccc2c(c1)N(S(=O)(=O)c1cccc(C(F)(F)F)c1)C[C@@H]1CN(C(C#N)(CO)CO)CCN21)c1c(F)cccc1Cl [Example 73, (S,E)-2-(8-(2-(2-chloro-6-fluorophenyl)prop-1-en-1-yl)-6-((3-(trifluoromethyl)phenyl)sulfonyl)-1,2,4,4a,5,6-hexahydro-3H-pyrazino[1,2-a]quinoxalin-3-yl)-3-hydroxy-2-(hydroxynethyl)propanenitrile]
40.3 nM | 0.74 | 4840 nM | 6.3 | O=S(=O)(c1cccc(C(F)(F)F)c1)N1C[C@H]2COCCN2c2ccc(-c3cc(F)cc(OC(F)F)c3)cc21 [Example 99]
61.4 nM | 0.98 | 249 nM | 2.8 | NC(=O)N1CCN2c3ccc(/C=C/c4c(Cl)cccc4C(F)(F)F)cc3N(S(=O)(=O)c3cccc(C(F)(F)F)c3)C[C@@H]2C1 [Example 60, (S,E)-8-(2-chloro-6-(trifluoromethyl)styryl)-6-((3-(trifluoromethyl)phenyl)sulfonyl)-1,2,4,4a,5,6-hexahydro-3H-pyrazino[1,2-a]quinoxalin-3-carboxamide]
20.6 nM | 0.75 | 1540 nM | 5.4 | O=S(=O)(c1cccc(C(F)(F)F)c1)N1C[C@@H]2COCCN2c2ccc(-c3cc(F)cc(OC(F)F)c3)cc21 [Example 98, (R)-8-(3-(difluoromethoxy)-5-fluorophenyl)-6-((3-(trifluoromethyl)phenyl)sulfonyl)-1,2,4,4a,5,6-hexahydro-[1,4]oxazino[4,3-a]quinoxaline]
170 nM | 0.69 | 955 nM | 4.8 | O=S(=O)(c1cccc(C(F)(F)F)c1)N1C[C@@H]2CC(O)CCN2c2ccc(-c3cc(F)cc(OC(F)F)c3)cc21 (stereo partly drawn) [Example 105, (6aS)-3-(3-(difluoromethoxy)-5-fluorophenyl)-5-((3-(trifluoromethyl)phenyl)sulfonyl)-6,6a,7,8,9,10-hexahydro-5H-pyrido[1,2-a]quinoxalin-8-ol]
46.6 nM | 0.78 | 508 nM | 2.7 | CC(C)(C(=O)O)N1CCN2c3ccc(/C=C/c4c(Cl)cccc4C(F)(F)F)cc3N(S(=O)(=O)c3cccc(C(F)(F)F)c3)C[C@@H]2C1 [Example 55, (S,E)-2-(8-(2-chloro-6-(trifluoro-methyl)styryl)-6-((3-(trifluoro-methyl)phenyl)sulfonyl)-1,2,4,4a,5,6-hexahydro-3H-pyrazino [1,2-a]quinoxalin-3-yl)-2-methylpropanoic acid]
